In paper PMC8637366 (Slas Discovery, 2021):
Where a name gives a salt, the structure may show the parent alone. Read-outs that look alike come from different tables or passages of the source.

Columns and labels:
Recombinant human BChE [1] = target: T1, Recombinant human BChE (Homo sapiens, UniProt P06276); experiment: biochemical; details: for Emax: read-out: BChE, % Efficacy
recombinant human AChE = recombinant human AChE (Homo sapiens, UniProt P22303); experiment: biochemical; assay type: biochemical; details: for Emax: read-out: AChE, % Efficacy
Sequence of recombinant human AChE (P22303 32-614): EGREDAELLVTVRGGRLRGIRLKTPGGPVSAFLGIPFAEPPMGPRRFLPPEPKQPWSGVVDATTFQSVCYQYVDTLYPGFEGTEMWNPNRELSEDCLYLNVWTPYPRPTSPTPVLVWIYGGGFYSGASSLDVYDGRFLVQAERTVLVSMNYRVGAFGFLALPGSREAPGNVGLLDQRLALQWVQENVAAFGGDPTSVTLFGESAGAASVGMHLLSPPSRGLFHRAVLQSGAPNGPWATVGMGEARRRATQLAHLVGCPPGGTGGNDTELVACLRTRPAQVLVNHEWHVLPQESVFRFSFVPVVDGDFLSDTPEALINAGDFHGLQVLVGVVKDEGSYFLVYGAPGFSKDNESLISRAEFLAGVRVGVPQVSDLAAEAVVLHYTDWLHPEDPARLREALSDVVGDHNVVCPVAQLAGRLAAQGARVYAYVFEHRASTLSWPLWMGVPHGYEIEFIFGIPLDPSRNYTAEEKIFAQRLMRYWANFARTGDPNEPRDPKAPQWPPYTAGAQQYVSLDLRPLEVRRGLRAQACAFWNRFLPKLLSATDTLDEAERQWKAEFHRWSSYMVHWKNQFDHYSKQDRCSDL

Recombinant human BChE [2] = target: T1, Recombinant human BChE; assay type: biochemical

T1 sequence (P06276 29-602): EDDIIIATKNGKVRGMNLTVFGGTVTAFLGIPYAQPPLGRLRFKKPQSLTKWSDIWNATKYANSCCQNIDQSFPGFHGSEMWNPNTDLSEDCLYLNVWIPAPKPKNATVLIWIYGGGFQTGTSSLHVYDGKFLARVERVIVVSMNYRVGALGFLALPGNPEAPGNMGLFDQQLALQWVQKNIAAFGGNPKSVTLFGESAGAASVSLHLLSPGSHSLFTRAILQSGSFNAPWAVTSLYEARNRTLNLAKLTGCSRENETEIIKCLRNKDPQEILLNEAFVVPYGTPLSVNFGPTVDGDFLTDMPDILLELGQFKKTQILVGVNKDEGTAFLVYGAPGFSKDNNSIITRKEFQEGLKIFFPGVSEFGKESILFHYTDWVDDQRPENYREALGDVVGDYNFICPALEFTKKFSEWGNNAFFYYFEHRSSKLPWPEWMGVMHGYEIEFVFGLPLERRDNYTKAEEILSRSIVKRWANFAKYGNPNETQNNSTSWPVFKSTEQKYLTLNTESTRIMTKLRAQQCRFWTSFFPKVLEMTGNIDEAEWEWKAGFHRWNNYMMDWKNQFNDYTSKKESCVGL

Compound | IC50 (Recombinant human BChE [1]; BChE, IC50) [nM] | Emax (Recombinant human BChE [1]) [%] | AChE, IC50 (recombinant human AChE) | other results
CC(C)OC(=O)C1=CN(C(=O)c2ccc(F)c(F)c2)CC(C)(C)c2c1[nH]c1ccccc21 [Turofexorate isopropyl] | 290 | -98.5 | Inactive | AChE inhibition (recombinant human AChE): did not show AChE inhibition
O=C(CN1CCN(Cc2ccc3c(c2)OCO3)CC1)N1c2ccccc2Sc2ccccc21 [Fenoverine] | 90 | -97.3 | Inactive | AChE inhibition (recombinant human AChE): did not show AChE inhibition
CCN(CC)C(C)CN1c2ccccc2Sc2ccccc21 (stereo not shown) [ethopropazine hydrochloride, Ethopropazine hydrochloride] | 1700 ± 530 | – | – | –
Diethylumbelliferyl phosphate | – | – | – | AChE, % Efficacy (recombinant human AChE): 0.42 ± 0.03 (–98.6 ± 5.66) %
CCN(CCCc1ccccc1)CCCc1ccccc1 [Alverine citrate] | 380 | -95 | Inactive | –
CCCCn1c(-c2ccccc2)nc(-c2ccccc2)c1CN(Cc1ccc2c(c1)OCO2)Cc1ccc2c(c1)OCO2 [NDT 9513727, N,N-Bis(1,3-benzodioxol-5-ylmethyl)-1-butyl-2,4-diphenyl-1H-imidazole-5-methanamine] | 210 | -101 | Inactive | AChE inhibition (recombinant human AChE): did not show AChE inhibition
CN1CCc2cc(Cl)c(O)cc2[C@@H](c2cccc3c2OCC3)C1 [NNC 756] | – | – | Inactive | BChE, % Efficacy (Recombinant human BChE [1]): 0.84 ± 0.11 (–98.2 ± 6.31) %; IC50 (Recombinant human BChE [1]; read-out: BChE, IC50): 840 nM
COc1ccc(CN(C(=O)[C@@H](N)Cc2c(C)cc(C(N)=O)cc2C)[C@@H](C)c2ncc(-c3ccccc3)[nH]2)cc1C(=O)O [Eluxadoline] | 340 | -100 | Inactive | –
Cc1c(Cl)c(=O)oc2cc(OP(=O)(OCCCl)OCCCl)ccc12 [Haloxon] | 30 | -91.2 | – | IC50 (recombinant human AChE): 320 nM; Emax (recombinant human AChE): -101%
Nc1c2ccccc2nc2ccccc12 [9-Aminoacridine monohydrochloride monohydrate] | 160 | -101 | – | –
O=c1nc(-c2ccccn2)sc2ccccc12 [BTZO 1] | – | – | Inactive | BChE, % Efficacy (Recombinant human BChE [1]): 0.49 ± 0.25 (–94.6 ± 2.01) %; IC50 (Recombinant human BChE [1]; read-out: BChE, IC50): 490 nM
CNC(=O)Oc1ccc2c(c1)[C@]1(C)CCN(C)[C@@H]1N2C [Physostigmine] | – | -98.4 | – | Emax (recombinant human AChE): -103%
N#CC(c1ccnc(OCc2ccc(CN3CCOCC3)cc2)n1)c1nc2ccccc2s1 (stereo not shown) [Bentamapimod] | 330 | -98.8 | Inactive | AChE inhibition (recombinant human AChE): did not show AChE inhibition
CN(C)C(=O)Oc1cc(OC(=O)N(C)C)cc(C(O)CNC(C)(C)C)c1 (stereo not shown) [Bambuterol hydrochloride] | 30 | -91.4 | Inactive | –
COc1cc(O)ccc1OCCNCC(O)COc1cccc2[nH]c3ccccc3c12 (stereo not shown) [4-hydroxyphenyl carvedilol] | – | – | Inactive | BChE, % Efficacy (Recombinant human BChE [1]): 0.97 ± 0.11 (–100 ± 2.04) %; IC50 (Recombinant human BChE [1]; read-out: BChE, IC50): 970 nM
CN(C)C(=O)Oc1cccc([N+](C)(C)C)c1 [Neostigmine bromide] | 900 | -102 | – | Emax (recombinant human AChE): -94.6%
Cc1c[nH]c2ncnc(N3CCC(CN)(C(=O)Nc4cccc(OC(=O)N(C)C)c4)CC3)c12 [LX-7101] | 220 | -96.6 | – | IC50 (recombinant human AChE): 7710 nM; Emax (recombinant human AChE): -92.4%
Clc1ccc(Nc2nc3ccccc3c3nc(C4CCCCC4)[nH]c23)cc1Cl [LUF6000] | – | – | – | inhibition against BChE in the fluorescent assay (Recombinant human BChE [2]): did not show inhibition
CCCCCCCCCCC[C@@H](C[C@@H]1OC(=O)[C@H]1CCCCCC)OC(=O)[C@H](CC(C)C)NC=O [Orlistat] | 120 | -92.9 | – | Emax (recombinant human AChE): -80.5%
